Results from PMC5448077, “Development of an orally available inhibitor of CLK1 for skipping a mutated dystrophin exon in Duchenne muscular dystrophy” (Scientific Reports, 2017).

What was measured:
Test in all cases: biochemical
ABL = biological target: T1, ABL (Homo sapiens, UniProt P00519)
T1 construct: gene ABL1
Summary of the method: (§1)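 Reactions at room temperature in HEPES buffer (20 mM, pH 7.5, 0.01% Triton X-100, 2 mM DTT) lasted 1 or 5 h depending on kinase, with substrate peptide and ATP-metal. Phosphorylation read by electrophoretic mobility shift or IMAP polarization; kinase activity computed as P/(P + S).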

ALK(G1202R) = ALK(G1202R) (Homo sapiens, UniProt Q9UM73, G1202R)
Summary of the method: as §1

ALK(L1196M) = ALK(L1196M) (Homo sapiens, UniProt Q9UM73, L1196M)
Summary of the method: as §1

AurC = biological target: T2, AurC (Homo sapiens, UniProt Q9UQB9)
T2 construct: gene AURKC
Summary of the method: as §1

CDC7/ASK = CDC7/ASK (Homo sapiens, UniProt O00311)
Summary of the method: as §1

CGK2 = biological target: T3, CGK2 (Homo sapiens, UniProt Q13237)
T3 construct: gene PRKG2
Summary of the method: as §1

CK1α = biological target: T4, CK1α (Homo sapiens, UniProt P48729)
T4 construct: gene CSNK1A1
Summary of the method: as §1

CaMK1α = biological target: T5, CaMK1α (Homo sapiens, UniProt Q14012)
T5 construct: gene CAMK1
Summary of the method: as §1

DYRK2 = DYRK2 (Homo sapiens, UniProt Q92630)
Summary of the method: as §1

FGFR4 = FGFR4 (Homo sapiens, UniProt P22455)
Summary of the method: as §1

FYN(isoform a) = biological target: T6, FYN(isoform a) (Homo sapiens, UniProt P06241)
T6 construct: isoform a
Summary of the method: as §1

IGF1R = IGF1R (Homo sapiens, UniProt P08069)
Summary of the method: as §1

KDR = KDR (Homo sapiens, UniProt P35968)
Summary of the method: as §1

KIT(V560G) = KIT(V560G) (Homo sapiens, UniProt P10721, V560G)
Summary of the method: as §1

MSK2 = biological target: T7, MSK2 (Homo sapiens, UniProt O75676)
T7 construct: gene RPS6KA4
Summary of the method: as §1

NEK2 = NEK2 (Homo sapiens, UniProt P51955)
Summary of the method: as §1

NEK6 = NEK6 (Homo sapiens, UniProt Q9HC98)
Summary of the method: as §1

PIM1 = PIM1 (Homo sapiens, UniProt P11309)
Summary of the method: as §1

PKD1 = biological target: T8, PKD1 (Homo sapiens, UniProt Q15139)
T8 construct: gene PRKD1
Summary of the method: as §1

ROCK1 = ROCK1 (Homo sapiens, UniProt Q13464)
Summary of the method: as §1

RON = biological target: T9, RON (Homo sapiens, UniProt Q04912)
T9 construct: gene MST1R
Summary of the method: as §1

RSK2 = biological target: T10, RSK2 (Homo sapiens, UniProt P51812)
T10 construct: gene RPS6KA3
Summary of the method: as §1

SGK = biological target: T11, SGK (Homo sapiens, UniProt O00141)
T11 construct: gene SGK1
Summary of the method: as §1

SPHK1 = SPHK1 (Homo sapiens, UniProt Q9NYA1)
Summary of the method: as §1

SRM = biological target: T12, SRM (Homo sapiens, UniProt Q9H3Y6)
T12 construct: gene SRMS
Summary of the method: as §1

SRPK1 = SRPK1 (Homo sapiens, UniProt Q96SB4)
Summary of the method: as §1

SRPK2 = SRPK2 (Homo sapiens, UniProt P78362)
Summary of the method: as §1

SYK = SYK (Homo sapiens, UniProt P43405)
Summary of the method: as §1

TRKB = biological target: T13, TRKB (Homo sapiens, UniProt Q16620)
T13 construct: gene NTRK2
Summary of the method: as §1

YES = biological target: T14, YES (Homo sapiens, UniProt P07947)
T14 construct: gene YES1
Summary of the method: as §1

p38β = biological target: T15, p38β (Homo sapiens, UniProt Q15759)
T15 construct: gene MAPK11
Summary of the method: as §1

T11 sequence (O00141 whole entry): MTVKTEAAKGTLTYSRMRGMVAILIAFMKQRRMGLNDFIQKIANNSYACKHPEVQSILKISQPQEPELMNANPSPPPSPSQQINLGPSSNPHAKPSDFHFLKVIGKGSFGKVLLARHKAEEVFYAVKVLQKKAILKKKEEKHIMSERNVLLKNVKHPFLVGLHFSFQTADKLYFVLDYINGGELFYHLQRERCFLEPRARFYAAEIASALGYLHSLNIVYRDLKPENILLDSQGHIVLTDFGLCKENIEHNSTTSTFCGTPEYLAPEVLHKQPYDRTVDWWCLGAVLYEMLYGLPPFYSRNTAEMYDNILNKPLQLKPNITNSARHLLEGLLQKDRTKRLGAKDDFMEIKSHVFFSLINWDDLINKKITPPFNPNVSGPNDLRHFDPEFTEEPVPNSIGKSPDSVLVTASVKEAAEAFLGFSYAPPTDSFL
T2 sequence (Q9UQB9 whole entry): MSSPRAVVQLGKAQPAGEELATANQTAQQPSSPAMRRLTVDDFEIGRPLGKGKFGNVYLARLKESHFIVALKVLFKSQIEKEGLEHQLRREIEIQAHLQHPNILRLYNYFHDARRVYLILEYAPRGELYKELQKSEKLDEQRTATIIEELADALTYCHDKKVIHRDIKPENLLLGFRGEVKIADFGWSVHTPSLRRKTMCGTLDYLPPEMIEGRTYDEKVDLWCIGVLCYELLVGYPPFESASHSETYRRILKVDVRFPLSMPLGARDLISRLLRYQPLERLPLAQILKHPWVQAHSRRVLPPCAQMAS
Sequence of FGFR4 (P22455 whole entry): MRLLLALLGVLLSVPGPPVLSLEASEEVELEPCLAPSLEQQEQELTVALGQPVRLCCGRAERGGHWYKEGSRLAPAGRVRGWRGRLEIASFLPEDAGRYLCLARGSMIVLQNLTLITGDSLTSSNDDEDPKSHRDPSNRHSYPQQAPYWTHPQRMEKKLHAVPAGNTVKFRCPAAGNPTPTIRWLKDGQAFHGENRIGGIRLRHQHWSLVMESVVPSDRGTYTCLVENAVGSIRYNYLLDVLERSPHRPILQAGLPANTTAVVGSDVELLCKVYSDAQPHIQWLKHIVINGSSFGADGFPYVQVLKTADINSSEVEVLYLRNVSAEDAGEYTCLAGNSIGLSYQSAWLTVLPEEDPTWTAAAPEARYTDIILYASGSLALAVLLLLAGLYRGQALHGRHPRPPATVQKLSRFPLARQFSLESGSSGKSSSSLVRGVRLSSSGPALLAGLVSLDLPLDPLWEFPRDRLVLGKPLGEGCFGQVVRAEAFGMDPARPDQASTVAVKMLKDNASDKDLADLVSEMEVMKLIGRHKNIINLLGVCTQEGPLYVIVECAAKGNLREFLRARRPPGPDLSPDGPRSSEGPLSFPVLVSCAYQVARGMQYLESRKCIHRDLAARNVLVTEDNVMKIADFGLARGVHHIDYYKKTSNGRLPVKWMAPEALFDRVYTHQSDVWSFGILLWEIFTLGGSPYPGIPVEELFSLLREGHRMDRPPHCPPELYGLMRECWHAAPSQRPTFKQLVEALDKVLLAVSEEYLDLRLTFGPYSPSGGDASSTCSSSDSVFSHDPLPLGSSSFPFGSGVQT
T12 sequence (Q9H3Y6 whole entry): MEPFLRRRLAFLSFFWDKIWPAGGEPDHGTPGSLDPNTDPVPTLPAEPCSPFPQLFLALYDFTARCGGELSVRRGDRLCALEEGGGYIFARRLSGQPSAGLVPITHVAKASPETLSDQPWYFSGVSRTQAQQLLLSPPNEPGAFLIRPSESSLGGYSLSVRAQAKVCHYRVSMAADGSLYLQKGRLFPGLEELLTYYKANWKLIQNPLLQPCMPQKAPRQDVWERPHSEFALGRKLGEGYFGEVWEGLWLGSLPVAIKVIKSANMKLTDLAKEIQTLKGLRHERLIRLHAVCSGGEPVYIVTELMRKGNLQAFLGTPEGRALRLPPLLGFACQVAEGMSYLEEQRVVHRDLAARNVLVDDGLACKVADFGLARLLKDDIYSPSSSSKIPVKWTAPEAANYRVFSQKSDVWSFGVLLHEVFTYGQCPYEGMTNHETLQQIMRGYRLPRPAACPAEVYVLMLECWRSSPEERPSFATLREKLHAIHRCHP
T4 sequence (P48729 whole entry): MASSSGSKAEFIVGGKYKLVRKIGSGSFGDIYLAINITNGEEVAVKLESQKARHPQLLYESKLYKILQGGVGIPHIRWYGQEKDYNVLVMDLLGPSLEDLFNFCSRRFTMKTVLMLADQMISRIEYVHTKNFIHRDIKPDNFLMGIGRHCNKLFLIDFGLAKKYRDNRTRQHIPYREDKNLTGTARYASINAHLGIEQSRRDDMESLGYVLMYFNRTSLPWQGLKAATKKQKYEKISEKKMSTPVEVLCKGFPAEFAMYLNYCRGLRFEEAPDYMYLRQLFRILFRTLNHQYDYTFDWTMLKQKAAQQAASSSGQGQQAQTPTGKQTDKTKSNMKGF
T8 sequence (Q15139 whole entry): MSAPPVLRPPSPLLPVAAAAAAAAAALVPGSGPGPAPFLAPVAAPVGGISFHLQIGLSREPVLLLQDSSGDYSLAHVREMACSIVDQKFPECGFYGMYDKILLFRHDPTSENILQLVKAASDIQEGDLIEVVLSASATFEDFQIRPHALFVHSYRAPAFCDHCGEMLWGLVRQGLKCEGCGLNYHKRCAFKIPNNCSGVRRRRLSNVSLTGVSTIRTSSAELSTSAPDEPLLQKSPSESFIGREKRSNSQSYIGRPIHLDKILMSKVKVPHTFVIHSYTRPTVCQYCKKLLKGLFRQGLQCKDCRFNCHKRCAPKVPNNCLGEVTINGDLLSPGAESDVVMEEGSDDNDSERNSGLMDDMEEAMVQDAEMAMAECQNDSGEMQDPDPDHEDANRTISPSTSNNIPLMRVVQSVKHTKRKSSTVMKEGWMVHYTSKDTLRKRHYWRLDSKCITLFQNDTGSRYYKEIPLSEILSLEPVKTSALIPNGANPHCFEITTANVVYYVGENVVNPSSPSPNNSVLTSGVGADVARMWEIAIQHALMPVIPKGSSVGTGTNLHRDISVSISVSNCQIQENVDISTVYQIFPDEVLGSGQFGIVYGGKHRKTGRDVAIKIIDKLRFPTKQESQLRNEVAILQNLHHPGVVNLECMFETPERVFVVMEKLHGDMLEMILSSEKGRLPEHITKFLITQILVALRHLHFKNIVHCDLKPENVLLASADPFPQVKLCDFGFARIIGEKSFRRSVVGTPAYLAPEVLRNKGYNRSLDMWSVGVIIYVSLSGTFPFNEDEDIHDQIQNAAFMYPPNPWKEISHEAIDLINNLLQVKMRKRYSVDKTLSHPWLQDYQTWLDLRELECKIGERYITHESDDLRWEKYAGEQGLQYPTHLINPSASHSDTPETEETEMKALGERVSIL
Sequence of SRPK2 (P78362 whole entry): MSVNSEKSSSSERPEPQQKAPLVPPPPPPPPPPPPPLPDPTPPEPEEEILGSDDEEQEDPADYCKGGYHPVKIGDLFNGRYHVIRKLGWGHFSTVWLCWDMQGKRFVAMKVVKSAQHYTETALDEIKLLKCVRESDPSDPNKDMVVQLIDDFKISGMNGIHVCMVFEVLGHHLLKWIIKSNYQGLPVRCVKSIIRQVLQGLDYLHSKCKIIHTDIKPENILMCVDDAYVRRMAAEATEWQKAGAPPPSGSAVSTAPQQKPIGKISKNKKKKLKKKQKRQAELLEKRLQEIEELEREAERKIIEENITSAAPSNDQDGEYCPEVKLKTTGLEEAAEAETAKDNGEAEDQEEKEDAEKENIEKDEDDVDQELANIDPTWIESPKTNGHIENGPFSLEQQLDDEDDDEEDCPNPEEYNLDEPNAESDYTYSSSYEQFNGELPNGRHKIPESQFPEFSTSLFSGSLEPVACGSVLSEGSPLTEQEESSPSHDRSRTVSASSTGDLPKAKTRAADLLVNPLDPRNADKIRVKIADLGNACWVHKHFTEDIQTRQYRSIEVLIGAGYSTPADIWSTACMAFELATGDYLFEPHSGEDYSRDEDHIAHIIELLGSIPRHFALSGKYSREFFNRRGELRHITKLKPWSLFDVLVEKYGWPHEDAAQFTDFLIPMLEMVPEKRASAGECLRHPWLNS
T15 sequence (Q15759 whole entry): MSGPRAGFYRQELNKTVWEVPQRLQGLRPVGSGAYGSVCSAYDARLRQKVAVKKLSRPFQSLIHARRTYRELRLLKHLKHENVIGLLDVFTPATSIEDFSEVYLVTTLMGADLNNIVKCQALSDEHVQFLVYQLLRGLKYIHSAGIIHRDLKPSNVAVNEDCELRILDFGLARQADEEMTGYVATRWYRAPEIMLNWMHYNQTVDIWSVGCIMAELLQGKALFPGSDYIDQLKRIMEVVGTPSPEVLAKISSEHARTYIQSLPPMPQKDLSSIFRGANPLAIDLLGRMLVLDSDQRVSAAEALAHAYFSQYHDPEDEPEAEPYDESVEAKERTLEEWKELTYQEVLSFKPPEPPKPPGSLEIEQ
T5 sequence (Q14012 whole entry): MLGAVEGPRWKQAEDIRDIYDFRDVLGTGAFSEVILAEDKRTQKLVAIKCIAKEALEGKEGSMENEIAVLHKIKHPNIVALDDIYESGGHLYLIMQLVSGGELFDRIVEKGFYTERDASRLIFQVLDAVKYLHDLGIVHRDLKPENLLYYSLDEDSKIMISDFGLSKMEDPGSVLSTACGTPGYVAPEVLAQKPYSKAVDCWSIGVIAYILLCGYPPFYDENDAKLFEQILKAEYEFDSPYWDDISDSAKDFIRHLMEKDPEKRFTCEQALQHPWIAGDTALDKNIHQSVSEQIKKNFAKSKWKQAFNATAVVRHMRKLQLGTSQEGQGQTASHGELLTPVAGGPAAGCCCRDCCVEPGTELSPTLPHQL

c1cc(-c2ccc3[nH]ncc3c2)ccn1 [TG693, 5-(4-pyridinyl)-1H-indazole]
inhibition at 1 µM (ABL): -1.3%
inhibition at 1 µM (ALK(G1202R)): 3.8%
inhibition at 1 µM (ALK(L1196M)): 2.6%
inhibition at 1 µM (AurC): 2.5%
inhibition at 1 µM (CDC7/ASK): 10.8%
inhibition at 1 µM (CGK2): 38.5%
inhibition at 1 µM (CK1α): 11.9%
inhibition at 1 µM (CaMK1α): 1.5%
inhibition at 1 µM (DYRK2): 77.2%
inhibition at 1 µM (FGFR4): 4.3%
inhibition at 1 µM (FYN(isoform a)): -0.7%
inhibition at 1 µM (IGF1R): 3.3%
inhibition at 1 µM (KDR): 0.1%
inhibition at 1 µM (KIT(V560G)): -2.6%
inhibition at 1 µM (MSK2): -5.1%
inhibition at 1 µM (NEK2): -11.9%
inhibition at 1 µM (NEK6): -2.5%
inhibition at 1 µM (PIM1): 1.2%
inhibition at 1 µM (PKD1): -15.8%
inhibition at 1 µM (ROCK1): 27.6%
inhibition at 1 µM (RON): 1.1%
inhibition at 1 µM (RSK2): 2.1%
inhibition at 1 µM (SGK): 5.6%
inhibition at 1 µM (SPHK1): -2.3%
inhibition at 1 µM (SRM): 1.5%
inhibition at 1 µM (SRPK1): 0.6%
inhibition at 1 µM (SRPK2): 0.5%
inhibition at 1 µM (SYK): -60.9%
inhibition at 1 µM (TRKB): 0.1%
inhibition at 1 µM (YES): -9.6%
inhibition at 1 µM (p38β): -1.5%
